Test results taken from paper PMC4823954, “From fighting depression to conquering tumors: a novel tricyclic thiazepine compound as a tubulin polymerization inhibitor” (Cell Death & Disease, 2016).

Assays:
Assay in all cases: KINOMEscan
Type in all cases: binding
Conditions in all cases: read-out: % Ctrl
ULK2 = target: T1, ULK2 (Homo sapiens, UniProt Q8IYT8)
T1 construct: purchased DiscoveRx KINOMEscan
Method in brief: (§1)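 Competition binding panel of 442 non-mutant kinases: test compound at 5 and 10 μM competed with an active-site-directed ligand for 1 h with shaking. Bound kinase was eluted with 0.5 μM ligand and quantified by qPCR; %Ctrl = (compound − positive control)/(DMSO − positive control) × 100, lower meaning tighter binding.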

HIPK1 = target: T2, HIPK1 (Homo sapiens, UniProt Q86Z02)
T2 construct: purchased DiscoveRx KINOMEscan
Method in brief: as §1

PCTK2 = target: T3, PCTK2 (Homo sapiens, UniProt Q00537)
T3 construct: purchased DiscoveRx KINOMEscan
Method in brief: as §1

CAMK2B = target: T4, CAMK2B (Homo sapiens, UniProt Q13554)
T4 construct: purchased DiscoveRx KINOMEscan
Method in brief: as §1

CDK4-cyclinD1 = target: T5, CDK4-cyclinD1 (Homo sapiens, UniProt P11802)
T5 construct: purchased DiscoveRx KINOMEscan
Method in brief: as §1

FES = target: T6, FES (Homo sapiens, UniProt P07332)
T6 construct: purchased DiscoveRx KINOMEscan
Method in brief: as §1

TNK2 = target: T7, TNK2 (Homo sapiens, UniProt Q07912)
T7 construct: purchased DiscoveRx KINOMEscan
Method in brief: as §1

LTK = target: T8, LTK (Homo sapiens, UniProt P29376)
T8 construct: purchased DiscoveRx KINOMEscan
Method in brief: as §1

VRK2 = target: T9, VRK2 (Homo sapiens, UniProt Q86Y07)
T9 construct: purchased DiscoveRx KINOMEscan
Method in brief: as §1

ARK5 = target: T10, ARK5 (Homo sapiens, UniProt O60285)
T10 construct: purchased DiscoveRx KINOMEscan
Method in brief: as §1

MKNK2 = target: T11, MKNK2 (Homo sapiens, UniProt Q9HBH9)
T11 construct: purchased DiscoveRx KINOMEscan
Method in brief: as §1

JNK1 = target: T12, JNK1 (Homo sapiens, UniProt P45983)
T12 construct: purchased DiscoveRx KINOMEscan
Method in brief: as §1

ACVR1 = target: T13, ACVR1 (Homo sapiens, UniProt Q04771)
T13 construct: purchased DiscoveRx KINOMEscan
Method in brief: as §1

CDK4-cyclinD3 = target: T14, CDK4-cyclinD3 (Homo sapiens, UniProt P11802)
T14 construct: purchased DiscoveRx KINOMEscan
Method in brief: as §1

ASK1 = target: T15, ASK1 (Homo sapiens, UniProt Q99683)
T15 construct: purchased DiscoveRx KINOMEscan
Method in brief: as §1

STK16 = target: T16, STK16 (Homo sapiens, UniProt O75716)
T16 construct: purchased DiscoveRx KINOMEscan
Method in brief: as §1

CSK = target: T17, CSK (Homo sapiens, UniProt P41240)
T17 construct: purchased DiscoveRx KINOMEscan
Method in brief: as §1

PIK3CA = target: T18, PIK3CA (Homo sapiens, UniProt P42336)
T18 construct: purchased DiscoveRx KINOMEscan
Method in brief: as §1

NIM1 = target: T19, NIM1 (Homo sapiens, UniProt Q8IY84)
T19 construct: purchased DiscoveRx KINOMEscan
Method in brief: as §1

YANK2 = target: T20, YANK2 (Homo sapiens, UniProt Q9NY57)
T20 construct: purchased DiscoveRx KINOMEscan
Method in brief: as §1

CAMK4 = target: T21, CAMK4 (Homo sapiens, UniProt Q16566)
T21 construct: purchased DiscoveRx KINOMEscan
Method in brief: as §1

DYRK1B = target: T22, DYRK1B (Homo sapiens, UniProt Q9Y463)
T22 construct: purchased DiscoveRx KINOMEscan
Method in brief: as §1

PIK3CA(C420R) = target: T23, PIK3CA(C420R) (Homo sapiens, UniProt P42336, C420R)
T23 construct: purchased DiscoveRx KINOMEscan

PIK3CA(H1047L) = target: T24, PIK3CA(H1047L) (Homo sapiens, UniProt P42336, H1047L)
T24 construct: purchased DiscoveRx KINOMEscan

MEK6 = target: T25, MEK6 (Homo sapiens, UniProt P52564)
T25 construct: purchased DiscoveRx KINOMEscan
Method in brief: as §1

FLT3 = target: T26, FLT3 (Homo sapiens, UniProt P36888)
T26 construct: purchased DiscoveRx KINOMEscan
Method in brief: as §1

BMX = target: T27, BMX (Homo sapiens, UniProt P51813)
T27 construct: purchased DiscoveRx KINOMEscan
Method in brief: as §1

AURKA = target: T28, AURKA (Homo sapiens, UniProt O14965)
T28 construct: purchased DiscoveRx KINOMEscan
Method in brief: as §1

TLK1 = target: T29, TLK1 (Homo sapiens, UniProt Q9UKI8)
T29 construct: purchased DiscoveRx KINOMEscan
Method in brief: as §1

IRAK1 = target: T30, IRAK1 (Homo sapiens, UniProt P51617)
T30 construct: purchased DiscoveRx KINOMEscan
Method in brief: as §1

T7 sequence (Q07912 whole entry): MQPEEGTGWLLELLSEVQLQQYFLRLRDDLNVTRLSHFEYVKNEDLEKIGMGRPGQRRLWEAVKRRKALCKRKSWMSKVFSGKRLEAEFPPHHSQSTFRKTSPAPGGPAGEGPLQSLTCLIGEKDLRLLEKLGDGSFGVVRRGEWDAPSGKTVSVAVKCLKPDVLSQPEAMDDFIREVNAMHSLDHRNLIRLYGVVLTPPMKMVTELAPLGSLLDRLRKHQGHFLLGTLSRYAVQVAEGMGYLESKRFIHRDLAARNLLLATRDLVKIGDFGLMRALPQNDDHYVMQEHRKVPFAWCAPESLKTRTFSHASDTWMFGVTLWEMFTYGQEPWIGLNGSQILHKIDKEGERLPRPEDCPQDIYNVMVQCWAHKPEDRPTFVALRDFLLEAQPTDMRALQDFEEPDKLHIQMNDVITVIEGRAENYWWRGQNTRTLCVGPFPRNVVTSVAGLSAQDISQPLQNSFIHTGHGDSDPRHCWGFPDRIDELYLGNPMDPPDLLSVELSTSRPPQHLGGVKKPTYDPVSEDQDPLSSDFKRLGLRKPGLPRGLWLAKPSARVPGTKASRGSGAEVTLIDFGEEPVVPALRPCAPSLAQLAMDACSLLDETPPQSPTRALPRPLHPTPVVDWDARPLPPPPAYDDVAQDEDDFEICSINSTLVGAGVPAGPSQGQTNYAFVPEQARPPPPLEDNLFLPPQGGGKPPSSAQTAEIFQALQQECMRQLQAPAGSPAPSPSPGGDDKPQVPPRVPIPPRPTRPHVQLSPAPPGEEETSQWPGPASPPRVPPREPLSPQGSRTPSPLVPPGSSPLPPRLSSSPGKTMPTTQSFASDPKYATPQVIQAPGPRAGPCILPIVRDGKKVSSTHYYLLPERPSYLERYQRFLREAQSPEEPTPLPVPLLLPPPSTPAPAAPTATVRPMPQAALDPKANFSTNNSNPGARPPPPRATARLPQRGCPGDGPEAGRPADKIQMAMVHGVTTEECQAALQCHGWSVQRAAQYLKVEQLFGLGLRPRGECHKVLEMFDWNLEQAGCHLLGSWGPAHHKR
T22 sequence (Q9Y463 whole entry): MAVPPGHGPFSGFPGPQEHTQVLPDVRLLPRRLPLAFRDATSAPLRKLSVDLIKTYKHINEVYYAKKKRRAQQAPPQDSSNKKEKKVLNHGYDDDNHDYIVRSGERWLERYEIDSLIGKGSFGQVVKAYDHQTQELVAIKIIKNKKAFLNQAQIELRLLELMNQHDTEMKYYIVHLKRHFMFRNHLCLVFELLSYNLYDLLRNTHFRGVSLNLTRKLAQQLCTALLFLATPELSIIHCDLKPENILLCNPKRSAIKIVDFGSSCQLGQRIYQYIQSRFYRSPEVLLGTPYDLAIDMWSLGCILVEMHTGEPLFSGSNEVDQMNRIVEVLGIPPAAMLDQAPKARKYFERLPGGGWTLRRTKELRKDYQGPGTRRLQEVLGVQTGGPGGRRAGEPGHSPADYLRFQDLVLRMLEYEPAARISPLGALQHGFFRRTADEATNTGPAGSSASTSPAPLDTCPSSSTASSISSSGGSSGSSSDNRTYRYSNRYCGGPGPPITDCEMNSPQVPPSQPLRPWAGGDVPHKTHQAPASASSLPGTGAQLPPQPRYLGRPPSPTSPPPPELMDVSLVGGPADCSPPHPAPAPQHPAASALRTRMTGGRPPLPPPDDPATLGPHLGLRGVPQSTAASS
T2 sequence (Q86Z02 whole entry): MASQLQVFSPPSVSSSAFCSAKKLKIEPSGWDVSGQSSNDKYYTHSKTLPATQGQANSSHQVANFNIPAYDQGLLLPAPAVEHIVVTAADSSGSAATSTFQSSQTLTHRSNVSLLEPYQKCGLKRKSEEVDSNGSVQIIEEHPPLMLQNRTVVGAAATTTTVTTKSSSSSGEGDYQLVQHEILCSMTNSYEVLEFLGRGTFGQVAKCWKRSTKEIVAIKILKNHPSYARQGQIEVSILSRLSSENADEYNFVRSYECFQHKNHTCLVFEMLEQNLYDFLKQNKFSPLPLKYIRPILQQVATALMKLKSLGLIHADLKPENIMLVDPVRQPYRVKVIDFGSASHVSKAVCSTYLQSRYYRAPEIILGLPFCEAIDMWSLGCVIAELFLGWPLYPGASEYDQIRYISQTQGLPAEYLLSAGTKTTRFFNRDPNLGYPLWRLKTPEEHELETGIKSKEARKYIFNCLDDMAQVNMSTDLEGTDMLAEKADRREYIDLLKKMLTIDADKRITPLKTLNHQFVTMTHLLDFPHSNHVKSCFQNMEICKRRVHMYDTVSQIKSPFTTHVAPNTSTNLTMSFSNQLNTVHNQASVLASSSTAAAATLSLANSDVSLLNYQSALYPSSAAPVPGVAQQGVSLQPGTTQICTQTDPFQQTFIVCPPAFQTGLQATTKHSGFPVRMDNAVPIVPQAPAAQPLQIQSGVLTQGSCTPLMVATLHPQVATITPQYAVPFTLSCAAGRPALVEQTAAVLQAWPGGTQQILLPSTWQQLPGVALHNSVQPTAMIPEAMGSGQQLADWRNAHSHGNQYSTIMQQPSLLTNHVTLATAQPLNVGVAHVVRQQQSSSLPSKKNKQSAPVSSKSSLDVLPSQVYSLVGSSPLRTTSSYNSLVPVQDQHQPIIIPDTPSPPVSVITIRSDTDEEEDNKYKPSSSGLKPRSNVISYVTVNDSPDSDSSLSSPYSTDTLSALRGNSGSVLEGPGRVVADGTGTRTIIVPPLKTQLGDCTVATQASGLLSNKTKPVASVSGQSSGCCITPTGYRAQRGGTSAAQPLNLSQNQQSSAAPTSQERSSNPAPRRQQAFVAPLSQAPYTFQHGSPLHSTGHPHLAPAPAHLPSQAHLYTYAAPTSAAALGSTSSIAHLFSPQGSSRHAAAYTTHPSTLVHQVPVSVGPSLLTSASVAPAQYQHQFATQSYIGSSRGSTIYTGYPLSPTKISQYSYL
T16 sequence (O75716 whole entry): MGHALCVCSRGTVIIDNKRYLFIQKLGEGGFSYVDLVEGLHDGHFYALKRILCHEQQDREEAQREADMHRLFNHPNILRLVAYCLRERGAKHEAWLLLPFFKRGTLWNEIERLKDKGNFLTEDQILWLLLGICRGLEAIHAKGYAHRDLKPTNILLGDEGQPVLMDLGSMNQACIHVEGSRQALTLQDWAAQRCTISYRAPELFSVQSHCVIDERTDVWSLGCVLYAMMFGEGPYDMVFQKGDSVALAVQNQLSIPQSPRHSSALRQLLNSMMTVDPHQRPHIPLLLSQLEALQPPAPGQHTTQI
T30 sequence (P51617 whole entry): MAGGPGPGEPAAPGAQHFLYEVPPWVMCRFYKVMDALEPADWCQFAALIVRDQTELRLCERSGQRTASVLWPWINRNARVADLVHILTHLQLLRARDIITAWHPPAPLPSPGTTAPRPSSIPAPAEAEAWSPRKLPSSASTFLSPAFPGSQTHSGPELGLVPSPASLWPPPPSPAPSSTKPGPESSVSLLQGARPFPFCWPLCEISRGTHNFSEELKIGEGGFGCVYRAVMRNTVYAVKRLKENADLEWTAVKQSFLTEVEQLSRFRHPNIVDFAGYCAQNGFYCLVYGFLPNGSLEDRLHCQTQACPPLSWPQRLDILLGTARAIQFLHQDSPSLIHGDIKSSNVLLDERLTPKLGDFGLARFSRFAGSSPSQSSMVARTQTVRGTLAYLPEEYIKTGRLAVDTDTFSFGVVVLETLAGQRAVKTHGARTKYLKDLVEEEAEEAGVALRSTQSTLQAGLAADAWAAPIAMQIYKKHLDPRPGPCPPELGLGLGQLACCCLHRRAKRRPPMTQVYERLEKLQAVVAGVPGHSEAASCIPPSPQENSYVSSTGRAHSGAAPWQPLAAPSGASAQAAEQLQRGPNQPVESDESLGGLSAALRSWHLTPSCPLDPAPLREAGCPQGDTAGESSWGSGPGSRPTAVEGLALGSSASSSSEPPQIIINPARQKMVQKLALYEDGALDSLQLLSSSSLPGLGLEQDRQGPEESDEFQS
T6 sequence (P07332 whole entry): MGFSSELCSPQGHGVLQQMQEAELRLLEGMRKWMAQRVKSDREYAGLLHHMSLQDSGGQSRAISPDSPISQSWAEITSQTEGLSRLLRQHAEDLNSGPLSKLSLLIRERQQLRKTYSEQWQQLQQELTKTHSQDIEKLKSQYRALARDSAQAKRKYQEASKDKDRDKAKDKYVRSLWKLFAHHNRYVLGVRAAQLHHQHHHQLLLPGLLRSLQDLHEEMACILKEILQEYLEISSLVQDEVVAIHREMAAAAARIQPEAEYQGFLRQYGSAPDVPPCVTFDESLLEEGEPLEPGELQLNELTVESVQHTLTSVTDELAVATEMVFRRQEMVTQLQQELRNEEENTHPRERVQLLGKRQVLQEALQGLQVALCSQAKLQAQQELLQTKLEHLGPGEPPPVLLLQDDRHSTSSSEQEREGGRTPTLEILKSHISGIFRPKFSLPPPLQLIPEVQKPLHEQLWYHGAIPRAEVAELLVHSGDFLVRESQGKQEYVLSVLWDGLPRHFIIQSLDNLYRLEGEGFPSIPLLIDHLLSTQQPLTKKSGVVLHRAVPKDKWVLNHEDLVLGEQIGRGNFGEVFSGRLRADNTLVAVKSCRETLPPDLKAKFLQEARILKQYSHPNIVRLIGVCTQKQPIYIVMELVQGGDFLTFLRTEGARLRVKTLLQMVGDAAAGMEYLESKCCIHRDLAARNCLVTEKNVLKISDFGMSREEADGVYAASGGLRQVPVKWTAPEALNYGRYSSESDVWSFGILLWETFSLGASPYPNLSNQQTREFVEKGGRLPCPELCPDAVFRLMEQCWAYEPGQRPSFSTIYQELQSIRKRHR
T25 sequence (P52564 whole entry): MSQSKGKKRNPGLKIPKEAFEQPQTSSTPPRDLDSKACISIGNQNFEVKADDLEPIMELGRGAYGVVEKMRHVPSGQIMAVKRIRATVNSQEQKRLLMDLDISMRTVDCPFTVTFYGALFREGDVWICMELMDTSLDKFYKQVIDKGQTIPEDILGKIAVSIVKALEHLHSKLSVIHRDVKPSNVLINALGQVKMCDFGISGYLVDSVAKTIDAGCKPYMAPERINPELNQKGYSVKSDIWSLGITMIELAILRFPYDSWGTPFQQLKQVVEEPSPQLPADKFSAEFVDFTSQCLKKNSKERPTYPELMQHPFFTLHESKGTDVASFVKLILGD

Cc1ccc(C2=Nc3cccnc3S(=O)(=O)c3ccccc32)cc1 [TBPT, 6-(p-tolyl)benzo[f] pyrido[2,3-b][1,4] thiazepine 11,11-dioxide]
remaining binding at 5 µM (ULK2; 5 μM): 91% | remaining binding at 10 µM (ULK2; 10 μM): 92% | remaining binding at 5 µM (HIPK1; 5 μM): 71% | remaining binding at 10 µM (HIPK1; 10 μM): 63% | remaining binding at 5 µM (PCTK2; 5 μM): 100% | remaining binding at 10 µM (PCTK2; 10 μM): 89% | remaining binding at 5 µM (CAMK2B; 5 μM): 100% | remaining binding at 10 µM (CAMK2B; 10 μM): 100% | remaining binding at 5 µM (CDK4-cyclinD1; 5 μM): 100% | remaining binding at 10 µM (CDK4-cyclinD1; 10 μM): 79% | remaining binding at 5 µM (FES; 5 μM): 100% | remaining binding at 10 µM (FES; 10 μM): 98% | remaining binding at 5 µM (TNK2; 5 μM): 100% | remaining binding at 10 µM (TNK2; 10 μM): 100% | remaining binding at 5 µM (LTK; 5 μM): 100% | remaining binding at 10 µM (LTK; 10 μM): 100% | remaining binding at 5 µM (VRK2; 5 μM): 100% | remaining binding at 10 µM (VRK2; 10 μM): 69% | remaining binding at 5 µM (ARK5; 5 μM): 100% | remaining binding at 10 µM (ARK5; 10 μM): 100% | remaining binding at 5 µM (MKNK2; 5 μM): 100% | remaining binding at 10 µM (MKNK2; 10 μM): 96% | remaining binding at 5 µM (JNK1; 5 μM): 100% | remaining binding at 10 µM (JNK1; 10 μM): 85% | remaining binding at 5 µM (ACVR1; 5 μM): 100% | remaining binding at 10 µM (ACVR1; 10 μM): 100% | remaining binding at 5 µM (CDK4-cyclinD3; 5 μM): 100% | remaining binding at 10 µM (CDK4-cyclinD3; 10 μM): 90% | remaining binding at 5 µM (ASK1; 5 μM): 100% | remaining binding at 10 µM (ASK1; 10 μM): 100% | remaining binding at 5 µM (STK16; 5 μM): 99% | remaining binding at 10 µM (STK16; 10 μM): 91% | remaining binding at 5 µM (CSK; 5 μM): 96% | remaining binding at 10 µM (CSK; 10 μM): 100% | remaining binding at 5 µM (PIK3CA; 5 μM): 100% | remaining binding at 10 µM (PIK3CA; 10 μM): 82% | remaining binding at 5 µM (NIM1; 5 μM): 90% | remaining binding at 10 µM (NIM1; 10 μM): 78% | remaining binding at 5 µM (YANK2; 5 μM): 99% | remaining binding at 10 µM (YANK2; 10 μM): 100% | remaining binding at 5 µM (CAMK4; 5 μM): 100% | remaining binding at 10 µM (CAMK4; 10 μM): 93% | remaining binding at 5 µM (DYRK1B; 5 μM): 99% | remaining binding at 10 µM (DYRK1B; 10 μM): 100% | remaining binding at 5 µM (PIK3CA(C420R); 5 μM): 100% | remaining binding at 10 µM (PIK3CA(C420R); 10 μM): 100% | remaining binding at 5 µM (PIK3CA(H1047L); 5 μM): 100% | remaining binding at 10 µM (PIK3CA(H1047L); 10 μM): 100% | remaining binding at 5 µM (MEK6; 5 μM): 83% | remaining binding at 10 µM (MEK6; 10 μM): 100% | remaining binding at 5 µM (FLT3; 5 μM): 100% | remaining binding at 10 µM (FLT3; 10 μM): 68% | remaining binding at 5 µM (BMX; 5 μM): 92% | remaining binding at 10 µM (BMX; 10 μM): 93% | remaining binding at 5 µM (AURKA; 5 μM): 100% | remaining binding at 10 µM (AURKA; 10 μM): 100% | remaining binding at 5 µM (TLK1; 5 μM): 93% | remaining binding at 10 µM (TLK1; 10 μM): 97% | remaining binding at 5 µM (IRAK1; 5 μM): 100% | remaining binding at 10 µM (IRAK1; 10 μM): 93%
